Consider three molecules from patent US20230233569A1 (Revolution Medicines, Inc., priority 2020, published 2023).

In general, IC50 refers to the concentration that inhibits the measured activity by half.

SMILES strings stand for the structures.

Test [1] has as its system Capan-1 (K-Ras G12V). In words: CellTiter-Glo cell viability assay, 5-day treatment. It is filed as cell-based. The settings on record: Homo sapiens, CAPAN-1, 120 h, 5-day treatment; read-out: Capan-1 Cell Viability assay data (K-Ras G12V, IC50). The essentials: (§1)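 Viability is read as luminescence on day 5 after direct compound addition to plated cells, following about 30 minutes' room-temperature equilibration. Each signal is scaled to mean DMSO as 100%.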

Test [2] has as its system NCI-H358 (K-Ras G12C). The description is as above. It is filed as cell-based. The settings on record: Homo sapiens, NCI-H358, 120 h, 5-day treatment; read-out: H358 Cell Viability assay data (K-Ras G12C, IC50). A digest of the protocol: as §1
The target in test [3] is KRAS G12C (Homo sapiens, UniProt P01116+P62937, G12C). The experiment in a line: Disruption of BRAF RBD interaction with Ras (FRET / MOA assay, with Cyclophilin A). It is filed as biochemical. The settings on record: read-out: KRAS G12C FRET data, IC50. The essentials: (§2)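 TR-FRET readout: a drop in ratio relative to DMSO wells marks disruption of the K-Ras:BRAF RBD complex via compound-induced K-Ras–Cyclophilin A ternary complex. Dosing used ten 3-fold steps from 30 μM final, 3 h at 25 °C, then Eu-anti-His 10 nM plus APC-anti-GST 50 nM for another 1.5 h. Values are IC50s.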

The target in test [4] is KRAS G12D (Homo sapiens, UniProt P01116+P62937, G12D). The description is as above. The settings on record: read-out: KRAS G12D FRET data, IC50. Type of test: biochemical. The essentials:
as §2

The target in test [5] is KRAS G12S (Homo sapiens, UniProt P01116+P62937, G12S). The test is described as above. Type of test: biochemical. The settings on record: read-out: KRAS G12S FRET data, IC50. A digest of the protocol:
as §2

Test [6] addresses KRAS G12V (Homo sapiens, UniProt P01116+P62937, G12V). The test is described as above. It is filed as biochemical. To be noted: KRAS G12V; read-out: KRAS G12V FRET data IC50. The essentials:
as §2

The target in test [7] is KRAS G13C (Homo sapiens, UniProt P01116+P62937, G13C). Described as above. Type of test: biochemical. To be noted: read-out: KRAS G13C FRET data, IC50. The essentials: as §2
For test [8], the target named is KRAS G13D (Homo sapiens, UniProt P01116+P62937, G13D). The description is as above. It is filed as biochemical. To be noted: KRAS G13D; read-out: KRAS G13D FRET data IC50. A digest of the protocol: as §2
Test [9] concerns the target KRAS WT (Homo sapiens, UniProt P01116+P62937). The description is as above. It is filed as biochemical. To be noted: KRAS WT; read-out: KRAS WT FRET data IC50. A digest of the protocol: as §2
For test [10], the target named is NRAS G12C (Homo sapiens, UniProt P01111+P62937, G12C). The description is as above. The settings on record: NRAS G12C; read-out: NRAS G12C FRET data IC50. Type of test: biochemical.
Test [11] concerns the target KRAS Q61H (Homo sapiens, UniProt P01116+P62937, Q61H). The description is as above. It is filed as biochemical. To be noted: KRAS Q61H; read-out: KRAS Q61H FRET data IC50. A digest of the protocol: (§3)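 IC50 reflects compound-driven Ras:Cyclophilin A ternary complex displacing BRAF RBD, read as lowered TR-FRET ratio relative to DMSO after Eu anti-His (10 nM) and APC anti-GST (50 nM) detection for 1.5 h. Prior incubation 3 h, 25° C, with 12.5 nM GMPPNP-loaded Ras, 50 nM BRAF RBD, 25 μM Cyclophilin A; top compound 30 μM.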

The target of test [12] is NRAS Q61K (Homo sapiens, UniProt P01111+P62937, Q61K). The description is as above. To be noted: NRAS Q61K; read-out: NRAS Q61K FRET data IC50. Type of test: biochemical. The essentials:
as §3

Test [13] has as its target NRAS Q61R (Homo sapiens, UniProt P01111+P62937, Q61R). The test is described as above. Type of test: biochemical. To be noted: NRAS Q61R; read-out: NRAS Q61R FRET data IC50. A digest of the protocol:
as §3

The target in test [14] is NRAS WT (Homo sapiens, UniProt P01111+P62937). The test is described as above. Type of test: biochemical. To be noted: NRAS WT; read-out: NRAS WT FRET data IC50. The essentials:
as §3

Chain of KRAS Q61H (P01116 1-169 isoform P01116-2 Q61H limits assumed): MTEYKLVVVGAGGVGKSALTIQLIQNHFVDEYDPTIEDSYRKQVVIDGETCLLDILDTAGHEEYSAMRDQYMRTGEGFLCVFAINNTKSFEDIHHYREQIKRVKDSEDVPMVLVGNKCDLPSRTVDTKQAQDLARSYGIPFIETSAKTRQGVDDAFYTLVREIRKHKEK
Chain of KRAS Q61H (P62937 whole entry): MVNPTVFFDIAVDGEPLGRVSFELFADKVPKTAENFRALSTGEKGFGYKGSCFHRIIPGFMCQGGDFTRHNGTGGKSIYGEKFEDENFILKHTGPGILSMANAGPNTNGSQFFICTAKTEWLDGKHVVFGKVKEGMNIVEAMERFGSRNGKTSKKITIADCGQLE
Chain of KRAS G13C (P01116 1-169 isoform P01116-2 G13C): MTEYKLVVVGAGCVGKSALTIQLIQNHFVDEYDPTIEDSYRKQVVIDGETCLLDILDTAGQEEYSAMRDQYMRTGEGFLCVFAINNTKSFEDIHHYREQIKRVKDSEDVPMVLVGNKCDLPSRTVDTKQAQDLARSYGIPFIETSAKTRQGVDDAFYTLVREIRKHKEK
Chain of KRAS G13C (P62937 whole entry): as the sequence (P62937 whole entry) above
Chain of KRAS G12S (P01116 1-169 isoform P01116-2 G12S limits assumed): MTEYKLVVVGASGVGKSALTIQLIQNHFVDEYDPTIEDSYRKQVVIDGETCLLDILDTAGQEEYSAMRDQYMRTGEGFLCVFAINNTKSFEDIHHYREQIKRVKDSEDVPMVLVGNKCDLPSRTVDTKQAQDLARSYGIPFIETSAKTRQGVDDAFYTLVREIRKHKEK
Chain of KRAS G12S (P62937 whole entry): as the sequence (P62937 whole entry) above
Chain of NRAS Q61R (P01111 whole entry Q61R): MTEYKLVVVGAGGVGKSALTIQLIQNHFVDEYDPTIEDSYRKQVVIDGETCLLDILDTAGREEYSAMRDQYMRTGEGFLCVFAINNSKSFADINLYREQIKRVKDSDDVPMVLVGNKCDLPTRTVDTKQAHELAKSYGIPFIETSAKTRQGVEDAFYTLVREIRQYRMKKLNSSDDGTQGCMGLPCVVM
Chain of NRAS Q61R (P62937 whole entry): as the sequence (P62937 whole entry) above
Chain of NRAS WT (P01111 whole entry): as the sequence (P01111 whole entry Q61R) above, with R61Q counted along it
Chain of NRAS WT (P62937 whole entry): as the sequence (P62937 whole entry) above
Chain of KRAS G12C (P01116 1-169 isoform P01116-2 G12C): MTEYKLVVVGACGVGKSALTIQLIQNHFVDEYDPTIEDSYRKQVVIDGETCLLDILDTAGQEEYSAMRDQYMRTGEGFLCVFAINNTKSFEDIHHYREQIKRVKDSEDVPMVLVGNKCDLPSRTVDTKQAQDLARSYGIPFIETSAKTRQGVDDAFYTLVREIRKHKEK
Chain of KRAS G12C (P62937 whole entry): as the sequence (P62937 whole entry) above
Chain of KRAS G12V (P01116 1-169 isoform P01116-2 G12V limits assumed): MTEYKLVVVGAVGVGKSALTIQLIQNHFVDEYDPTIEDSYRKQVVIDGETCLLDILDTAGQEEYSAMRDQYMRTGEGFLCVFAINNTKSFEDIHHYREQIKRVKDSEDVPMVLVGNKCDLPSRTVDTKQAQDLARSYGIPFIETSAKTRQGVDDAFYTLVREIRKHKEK
Chain of KRAS G12V (P62937 whole entry): as the sequence (P62937 whole entry) above
Chain of KRAS G12D (P01116 1-169 isoform P01116-2 G12D limits assumed): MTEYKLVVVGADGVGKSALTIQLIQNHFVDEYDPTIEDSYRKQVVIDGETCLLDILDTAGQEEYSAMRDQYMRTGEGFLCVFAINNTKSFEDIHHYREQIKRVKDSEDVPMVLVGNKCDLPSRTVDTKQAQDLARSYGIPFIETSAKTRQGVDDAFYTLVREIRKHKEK
Chain of KRAS G12D (P62937 whole entry): as the sequence (P62937 whole entry) above
Chain of NRAS Q61K (P01111 whole entry Q61K): as the sequence (P01111 whole entry Q61R) above, with R61K counted along it
Chain of NRAS Q61K (P62937 whole entry): as the sequence (P62937 whole entry) above
Chain of KRAS WT (P01116 1-169 isoform P01116-2 limits assumed): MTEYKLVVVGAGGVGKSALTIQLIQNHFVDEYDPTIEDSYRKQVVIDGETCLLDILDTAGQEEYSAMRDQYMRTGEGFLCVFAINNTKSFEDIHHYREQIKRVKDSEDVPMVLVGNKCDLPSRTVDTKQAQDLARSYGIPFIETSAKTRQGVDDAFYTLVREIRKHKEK
Chain of KRAS WT (P62937 whole entry): as the sequence (P62937 whole entry) above
Chain of KRAS G13D (P01116 1-169 isoform P01116-2 G13D limits assumed): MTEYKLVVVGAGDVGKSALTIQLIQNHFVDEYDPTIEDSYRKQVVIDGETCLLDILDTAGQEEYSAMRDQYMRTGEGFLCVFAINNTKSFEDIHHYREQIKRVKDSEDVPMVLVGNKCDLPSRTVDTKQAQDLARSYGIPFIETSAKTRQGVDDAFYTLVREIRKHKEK
Chain of KRAS G13D (P62937 whole entry): as the sequence (P62937 whole entry) above
Chain of NRAS G12C (P01111 whole entry G12C): as the sequence (P01111 whole entry Q61R) above, with G12C, R61Q counted along it
Chain of NRAS G12C (P62937 whole entry): as the sequence (P62937 whole entry) above

For the molecule `CCn1c(-c2cccnc2[C@H](C)OC)c2c3cc(ccc31)-c1csc(n1)C[C@H](NC(=O)[C@H](C(C)C)N(C)C(=O)N1[C@@H](C)CN(C)C[C@@H]1C)C(=O)N1CCC[C@H](N1)C(=O)OCC(C)(C)C2` [Example A609], the IC50 in test [1] fell in the range of 100 to 1000 nM; in [2], 1000 to 10000 nM; in test [3], 1000 to 10000 nM; in test [4], 1000 to 10000 nM; in test [5], 1000 to 10000 nM; in test [6] it was 1000 to 10000 nM. Also, the half-inhibitory concentration (IC50) in test [7] was in the range of 1000 to 10000 nM; in test [8] it was 1000 to 10000 nM; in test [9], 1000 to 10000 nM; in test [10], 100 to 1000 nM; in [11], 100 to 1000 nM; in [12] it was 100 to 1000 nM. The values for the IC50 in test [13] and in [14] were 100 to 1000 nM and 1000 to 10000 nM, respectively.
`CCn1c(-c2cccnc2[C@H](C)OC)c2c3cc(ccc31)-c1csc(n1)C[C@H](NC(=O)[C@H](C(C)C)N(C)C(=O)N1[C@H](C)CN(C)C[C@H]1C)C(=O)N1CCC[C@H](N1)C(=O)OCC(C)(C)C2` [Example A610]: the half-maximal inhibitory concentration (IC50) in test [1], in test [2], in [3], in test [4], in test [5] and in [6] was 100 to 1000 nM each time. In addition, the IC50 lay within 100 to 1000 nM in test [7]; 100 to 1000 nM in [8]; 100 to 1000 nM in test [9]; 100 to 1000 nM in test [10]; 10 to 100 nM in test [11]; 100 to 1000 nM in test [12]. For the same molecule, the IC50 in [13] and in test [14] was 100 to 1000 nM each time.
In the case of `CCn1c(-c2cccnc2[C@H](C)OC)c2c3cc(cnc31)-c1csc(n1)C[C@H](NC(=O)[C@H](C(C)C)N(C)C(=O)N1CC(OC)C1)C(=O)N1CCC[C@H](N1)C(=O)OCC(C)(C)C2` [Example A612], the half-inhibitory concentration (IC50) is 100 to 1000 nM in test [1]; 100 to 1000 nM in test [2]; 100 to 1000 nM in [3]; 1000 to 10000 nM in test [4]; 1000 to 10000 nM in [5]; 1000 to 10000 nM in [6]. The half-inhibitory concentration (IC50) in test [7] was 1000 to 10000 nM; in [8], 1000 to 10000 nM; in test [9], 1000 to 10000 nM; in test [10], 100 to 1000 nM; in test [11] it was 100 to 1000 nM; in [12], 100 to 1000 nM. The IC50 in test [13] is 1000 to 10000 nM; in test [14], 100 to 1000 nM.
